The target of assay [1] is T1, human alpha thrombin (Homo sapiens, UniProt P00734).
T1 construct: Purified human alpha-thrombin; purchased Enzyme Research Laboratories, Inc
Briefly: Thrombin (fIIa) IC50 assay, chromogenic substrate Pefachrome t-PA. The class given is biochemical. As to the method:
(§1) The ability of compounds of the present invention to act as a selective inhibitor of thrombin catalytic activity was assessed by determining the concentration of compound which inhibited the activity of this enzyme by 50%, (IC50), and comparing this value to that determined for all or some of the following related serine proteases: recombinant tissue plasminogen activator (rt-PA), plasmin, activated protein C, chymotrypsin, factor Xa and trypsin.
(§2) The buffer used for all assays was HBSA (10 mM HEPES, pH 7.5, 150 mM sodium chloride, 0.1% bovine serum albumin).
(§3) The assay for IC50 determinations was conducted by combining in appropriate wells of a Corning microtiter plate, 50 microliters of HBSA, 50 microliters of the test compound at a specified concentration (covering a broad concentration range) diluted in HBSA (or HBSA alone for VO (uninhibited velocity) measurement), and 50 microliters of the enzyme diluted in HBSA. Following a 30 minute incubation at ambient temperature, 50 microliters of the substrate at the concentrations specified below were added to the wells, yielding a final total volume of 200 microliters. The initial velocity of chromogenic substrate hydrolysis was measured by the change in absorbance at 405 nm using a Thermo Max® Kinetic Microplate Reader over a 5 minute period in which less than 5% of the added substrate was utilized. The concentration of added inhibitor which caused a 50% decrease in the initial rate of hydrolysis was defined as the IC50 value.
Enzyme activity was determined using the chromogenic substrate, Pefachrome t-PA (CH3SO2-D-hexahydrotyrosine-glycyl-L-Arginine-p-nitroaniline, obtained from Pentapharm Ltd.). The substrate was reconstituted in deionized water prior to use. Purified human a-thrombin was obtained from Enzyme Research Laboratories, Inc. The buffer used for all assays was HBSA (10 mM HEPES, pH 7.5, 150 mM sodium chloride, 0.1% bovine serum albumin).
IC50 determinations were conducted where HBSA ([…]), a-thrombin (50 μl) and inhibitor (50 μl) (covering a broad concentration range), were combined in appropriate wells and incubated for 30 minutes at room temperature prior to the addition of substrate Pefachrome-t-PA (50 μl). The initial velocity of Pefachrome t-PA hydrolysis was measured by the change in absorbance at 405 nm using a Thermo Max® Kinetic Microplate Reader over a 5 minute period in which less than 5% of the added substrate was utilized. The concentration of added inhibitor which caused a 50% decrease in the initial rate of hydrolysis was defined as the IC50 value.

In assay [2] the target is T2, Human rt-PA (Activase) (Homo sapiens, UniProt P00750).
T2 construct: purchased Genentech Inc
T2 sequence (P00750 36-562): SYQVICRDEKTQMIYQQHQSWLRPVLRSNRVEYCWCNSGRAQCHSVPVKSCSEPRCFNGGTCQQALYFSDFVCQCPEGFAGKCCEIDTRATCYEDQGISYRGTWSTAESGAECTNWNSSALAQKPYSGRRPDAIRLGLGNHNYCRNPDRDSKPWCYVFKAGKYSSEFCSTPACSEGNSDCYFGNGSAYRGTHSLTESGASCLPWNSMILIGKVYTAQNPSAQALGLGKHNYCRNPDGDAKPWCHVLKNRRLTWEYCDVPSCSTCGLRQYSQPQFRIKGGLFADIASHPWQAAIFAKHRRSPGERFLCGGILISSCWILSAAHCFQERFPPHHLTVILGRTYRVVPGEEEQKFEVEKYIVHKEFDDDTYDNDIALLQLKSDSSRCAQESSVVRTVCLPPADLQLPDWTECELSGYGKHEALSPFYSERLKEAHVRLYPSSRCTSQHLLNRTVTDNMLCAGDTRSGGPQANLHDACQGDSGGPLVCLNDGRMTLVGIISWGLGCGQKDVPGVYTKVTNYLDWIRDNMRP
Description: biochemical. The note with it: 30 minute incubation; for IC50: read-out: rt-PA (IC50) (Table 3A). As to the method:
as §1, §2, §3
Recombinant Tissue Plasminogen Activator (rt-PA) Assay
rt-PA catalytic activity was determined using the substrate, Pefachrome t-PA (CH3SO2-D-hexahydrotyrosine-glycyl-L-arginine-p-nitroaniline, obtained from Pentapharm Ltd.). The substrate was made up in deionized water followed by dilution in HBSA prior to the assay in which the final concentration was 500 micromolar (about 3-times Km). Human rt-PA (Activase®) was obtained from Genentech Inc. The enzyme was reconstituted in deionized water and diluted into HBSA prior to the assay in which the final concentration was 1.0 nM.

Assay [3] concerns the target human plasmin (Homo sapiens, UniProt P00747). Briefly: biochemical. The note with it: 30 minute incubation. The procedure: as §1, §2, §3
Plasmin catalytic activity was determined using the chromogenic substrate, S-2366 [L-pyroglutomyl-L-prolyl-L-arginine-p-nitroaniline hydrochloride], which was obtained from Pharmacia-Upjohn. The substrate was made up in deionized water followed by dilution in HBSA prior to the assay in which the final concentration was 300 micromolar (about 2.5-times Km). Purified human plasmin was obtained from Enzyme Research Laboratories, Inc. The enzyme was diluted into HBSA prior to assay in which the final concentration was […].

Assay [4] has as its target T3, human aPC (Homo sapiens, UniProt P04070).
T3 construct: purchased Hematologic Technologies, Inc
Description: biochemical. The note with it: 30 minute incubation; for IC50: read-out: aPC (IC50) (Table 3A). The procedure:
as §2
Following a 30 minute incubation at ambient temperature, 50 microliters of the substrate at the concentrations specified below were added to the wells, yielding a final total volume of 200 microliters.
Activated Protein C (aPC) Assay
aPC catalytic activity was determined using the chromogenic substrate, Pefachrome PC (delta-carbobenzloxy-D-lysine-L-prolyl-L-arginine-p-nitroaniline dihydrochloride), obtained from Pentapharm Ltd.). […] Purified human aPC was obtained from Hematologic Technologies, Inc. The enzyme was diluted into HBSA prior to assay in which the final concentration was 1.0 nM.

Where [5] appears, read: read-out: Plasmin (IC50) (Table 3A).
Setting [6] is: read-out: Plasmin IC50 (Table 3B).
Where [7] appears, read: 30 minute incubation, read-out: Thrombin IC50 (Table 3C).

These results are taken from US6342504B1, “Aromatic heterocyclic derivatives as enzyme inhibitors” (priority 1994, dated 2002).

For orientation: IC50 means the midpoint of a concentration-inhibition curve.

Counter-ions that a name gives are not always drawn. Like-named read-outs stand apart in the source and are kept apart here.

T3 sequence (P04070 43-197): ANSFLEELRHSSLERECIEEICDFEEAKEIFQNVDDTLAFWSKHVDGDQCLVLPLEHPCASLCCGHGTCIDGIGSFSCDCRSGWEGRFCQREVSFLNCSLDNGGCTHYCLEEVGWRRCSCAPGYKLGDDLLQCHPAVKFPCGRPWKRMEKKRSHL
T3 sequence (P04070 212-461): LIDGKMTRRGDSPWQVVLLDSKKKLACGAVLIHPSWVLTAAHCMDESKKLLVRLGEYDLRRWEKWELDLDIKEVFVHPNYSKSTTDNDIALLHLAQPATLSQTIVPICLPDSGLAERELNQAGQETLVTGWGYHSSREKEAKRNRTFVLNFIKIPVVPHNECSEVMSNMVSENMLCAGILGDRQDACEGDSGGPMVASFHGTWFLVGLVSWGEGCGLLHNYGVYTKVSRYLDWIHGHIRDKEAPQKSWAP
human plasmin, sequence (P00747 97-580): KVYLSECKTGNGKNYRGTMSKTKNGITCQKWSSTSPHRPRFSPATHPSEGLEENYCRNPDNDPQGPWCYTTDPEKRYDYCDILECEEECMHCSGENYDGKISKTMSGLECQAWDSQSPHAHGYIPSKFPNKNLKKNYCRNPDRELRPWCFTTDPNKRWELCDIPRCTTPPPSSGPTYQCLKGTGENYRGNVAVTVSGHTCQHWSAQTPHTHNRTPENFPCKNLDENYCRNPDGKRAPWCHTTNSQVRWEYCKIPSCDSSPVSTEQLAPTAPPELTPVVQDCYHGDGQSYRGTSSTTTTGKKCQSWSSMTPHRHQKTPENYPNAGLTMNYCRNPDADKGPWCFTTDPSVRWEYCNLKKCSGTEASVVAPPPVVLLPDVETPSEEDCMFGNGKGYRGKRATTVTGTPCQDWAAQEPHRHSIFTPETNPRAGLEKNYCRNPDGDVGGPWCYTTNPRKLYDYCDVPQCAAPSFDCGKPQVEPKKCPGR
human plasmin, sequence (P00747 581-810): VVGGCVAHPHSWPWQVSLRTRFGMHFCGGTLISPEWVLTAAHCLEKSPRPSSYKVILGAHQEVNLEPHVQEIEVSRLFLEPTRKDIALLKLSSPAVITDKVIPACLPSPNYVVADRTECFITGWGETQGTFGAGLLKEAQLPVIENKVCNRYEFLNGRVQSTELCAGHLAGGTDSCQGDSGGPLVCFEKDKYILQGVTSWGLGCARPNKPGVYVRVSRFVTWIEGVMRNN

Turning to `COc1cccc(S(=O)(=O)Nc2cccn(CC(=O)N[C@H](C=O)CCCNC(=N)N)c2=O)c1` [Compound 3-OMe-phenyl, [3-(3-methoxylphenyl)sulfonylamino-2-oxo-1,2-dihydropyridyl]acetyl-L-argininal], the IC50 in assay [1] was 0.65 nM; in assay [2] it was above 2500 nM; in assay [3] (setting [5]), above 2500 nM; in assay [4] it was above 2500 nM.
For the compound `COc1ccccc1S(=O)(=O)Nc1cccn(CC(=O)N[C@H](C=O)CCCNC(=N)N)c1=O` [Compound 2-OMe-phenyl, [3-(2-methoxylphenyl)sulfonylamino-2-oxo-1,2-dihydropyridyl]acetyl-L-argininal], the IC50 was 1.98 nM in assay [1], above 2500 nM in assay [2], above 2500 nM in assay [3] (setting [5]) and above 2500 nM in assay [4].
On to `N=C(N)NCCC[C@@H](C=O)NC(=O)Cn1cccc(NS(=O)(=O)Cc2cccc(F)c2)c1=O` [Compound 121K], for which the IC50 in assay [1] is 0.882 nM; in assay [3] (setting [6]), above 2500 nM. Further, in assay [2], the “rtPA IC50 (Table 3B)” value is “inactive”. Also, the “aPC IC50 (Table 3B)” value in assay [4] was “inactive”.
Consider `COc1cccc(S(=O)(=O)Nc2ccc(=O)n(CC(=O)N[C@H](C=O)CCCNC(=N)N)c2)c1OC` [Compound 152B, [5-(2,3-dimethoxy-benzene)sulfonylamino-2-oxo-1,2-dihydropyridyl]acetyl-L-argininal], for which the IC50 in assay [1] (setting [7]) worked out at 14.9 nM.
Consider “[5-(2,3-dioxaspirocyclohexyl)-sulfonylamino-2-oxo-1,2-dihydropyridyl]acetyl-L-argininal [Compound 152C]”, for which the IC50 in assay [1] (setting [7]) came out at 6.01 nM.
With `N=C(N)NCCC[C@@H](C=O)NC(=O)Cn1cccc(NS(=O)(=O)c2ccccc2N)c1=O` [Compound 2-NH2phenyl, [3-(2-aminophenyl)sulfonylamino-2-oxo-1,2-dihydropyridyl]acetyl-L-argininal], the IC50 in assay [1] was 3.7 nM; in assay [2], above 2500 nM; in assay [3] (setting [5]), above 2500 nM; in assay [4], above 2500 nM.
Take `N=C(N)NCCC[C@@H](C=O)NC(=O)Cn1cccc(NS(=O)(=O)c2ccccc2F)c1=O` [Compound 121A]: the IC50 in assay [1] was 14.7 nM; in assay [3] (setting [6]), above 2500 nM.
Regarding `Cc1ccc(NS(=O)(=O)Cc2ccccc2)c(=O)n1CC(=O)N[C@H](C=O)CCCNC(=N)N` [Compound C, (3-benzylsulfonylamino-6-methyl-2-oxo-1,2-dihydro-1-pyridyl)acetyl-L-argininal, trifluoroacetate salt], the figures for the IC50 in assay [1] and in assay [3] (read-out: IC50 Plasmin (Table 2)) were 0.467 nM and above 2500 nM, respectively.
`N=C(N)NCCC[C@@H](C=O)NC(=O)Cn1cccc(NS(=O)(=O)CCc2ccccc2)c1=O` [Compound 121G, [3-(phenethyl)sulfonylamino-2-oxo-1,2-dihydropyridyl]acetyl-L-argininal]: the IC50 in assay [1] was 46.9 nM; in assay [3] (setting [6]), around 2500 nM.
In the case of “[5-(2,3-dihydrobenzofuran)sulfonylamino-6-methyl-2-oxo-1,2-dihydro-pyridyl]acetyl-L-argininal [Compound 153C]”, the IC50 in assay [1] (setting [7]) is 0.266 nM.
For the compound `COC(=O)c1ccccc1CS(=O)(=O)Nc1cccn(CC(=O)N[C@H](C=O)CCCNC(=N)N)c1=O` [Compound 121M], the 50% inhibitory concentration (IC50) in assay [1] is 0.623 nM; in assay [3] (setting [6]) it was above 2500 nM.
In the case of “[5-(1,3-benzodioxole)sulfonylalmino-6-methyl-2-oxo-1,2-dihydro-pyridyl]acetyl-L-argininal [Compound 153D]”, the IC50 in assay [1] (setting [7]) was 0.31 nM.
With “[2,3-methylenedioxy-benzene)sulfonylamino-2-oxo-1,2-dihydropyridyl]acetyl-L-argininal [Compound 152D]”, in assay [1] (setting [7]), the IC50 stood at 0.794 nM.
For the compound “[5-(1,3-benzodioxole)sulfonylamino-2-oxo-1,2-dihydropyridyl]acetyl-L-argininal [Compound 152A]”, in assay [1] (setting [7]), the IC50 turned out to be 0.807 nM.
Still for that read-out and setting: next, “[5-(1,4-benzodioxan)sulfonylamino-6-methyl-2-oxo-1,2-dihydro-pyridyl]acetyl-L-argininal [Compound 153B]”: 0.274 nM.
